Measurements published in US12570642B2, “GLP-IR modulating compounds” (Gilead Sciences, Inc., priority 2021, dated 2026).

Molecular target: GLP-1R (Homo sapiens, UniProt P43220)
Assay: GLP-1R Activation - cAMP Assay
Type: cell-based
Details: cAMP increase in CHO cells stably expressing GLP-1R; each compound run on one of the two cAMP assays (Assay 1 or Assay 2, not specified)
Method in brief: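 cAMP rise read by HTRF after 30 min agonist exposure (10-point titration, 37 °C) in HBSS/20 mM Hepes/0.1% BSA, following 1 h pre-incubation. Cells: stable GLP-1R CHO line, 1,000/well, seeded overnight. Sigmoidal fit of response vs log concentration gives EC50.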

Sequence of GLP-1R (P43220 24-463): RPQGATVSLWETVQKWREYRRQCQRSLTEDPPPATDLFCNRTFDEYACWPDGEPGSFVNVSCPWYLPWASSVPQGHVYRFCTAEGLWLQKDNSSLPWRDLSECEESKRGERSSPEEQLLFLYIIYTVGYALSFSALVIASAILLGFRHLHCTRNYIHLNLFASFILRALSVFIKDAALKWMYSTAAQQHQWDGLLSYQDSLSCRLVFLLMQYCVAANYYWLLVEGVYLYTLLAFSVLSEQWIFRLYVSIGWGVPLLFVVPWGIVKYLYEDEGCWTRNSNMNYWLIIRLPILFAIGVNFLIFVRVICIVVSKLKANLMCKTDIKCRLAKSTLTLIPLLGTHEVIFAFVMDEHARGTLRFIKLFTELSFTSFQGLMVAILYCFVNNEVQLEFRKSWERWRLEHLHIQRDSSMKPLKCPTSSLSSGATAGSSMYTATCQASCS

Which EC50 does the source give for N#Cc1ccc(COc2cccc(-c3cc(F)c(Cc4nc5ccc(C(=O)O)cc5n4[C@@H]4COC[C@@H]4OC4CC4)cc3F)n2)c(F)c1 (racemic) [Example 411, 2-(4-(6-((4-cyano-2-fluorobenzyl)oxy)pyridin-2-yl)-2,5-difluorobenzyl)-1-((3R,4R)-4-cyclopropoxytetrahydrofuran-3-yl)-1H-benzo[d]imidazole-6-carboxylic acid] here?
Its EC50 is 1.33 nM.

CC1(C)COC[C@H]1n1c(Cc2cc(F)c(-c3cccc(OCc4ccc(Cl)cc4F)n3)cc2F)nc2cnc(C(=O)O)cc21 [Example 423, (S)-2-(4-(6-((4-chloro-2-fluorobenzyl)oxy)pyridin-2-yl)-2,5-difluorobenzyl)-1-(4,4-dimethyltetrahydrofuran-3-yl)-1H-imidazo[4,5-c]pyridine-6-carboxylic acid] was tested. Which EC50 did it give?
The EC50 was 2.54 nM.

For COCCn1c(Cc2cc(F)c(-c3cccc(OCc4ccc(-c5cnn(C)c5)nc4)n3)cc2F)nc2ccc(C(=O)O)cc21 [Example 108, 2-(2,5-difluoro-4-(6-((6-(1-methyl-1H-pyrazol-4-yl)pyridin-3-yl)methoxy)pyridin-2-yl)benzyl)-1-(2-methoxyethyl)-1H-benzo[d]imidazole-6-carboxylic Acid], which EC50 is on record?
Its EC50 is 3.28 nM.

Which EC50 does the source give for Cn1ncc2ccc(COc3cccc(-c4cc(F)c(Cc5nc6ccc(C(=O)O)cc6n5C[C@@H]5CCO5)cc4F)n3)cc21 [Example 524, (S)-2-(2,5-difluoro-4-(6-((1-methyl-1H-indazol-6-yl)methoxy)pyridin-2-yl)benzyl)-1-(oxetan-2-ylmethyl)-1H-benzo[d]imidazole-6-carboxylic acid] here?
Its EC50 is 0.605 nM.

Which EC50 does the source give for CC1(C)COC[C@H]1n1c(Cc2cc(F)c(-c3cccc(OCc4cc(F)c(Cl)cc4F)n3)cc2F)nc2ccc(C(=O)O)cc21 [Example 490, (S)-2-(4-(6-((4-chloro-2,5-difluorobenzyl)oxy)pyridin-2-yl)-2,5-difluorobenzyl)-1-(4,4-dimethyltetrahydrofuran-3-yl)-1H-benzo[d]imidazole-6-carboxylic acid] here?
The EC50 was 0.182 nM.

How did the EC50 turn out when CC1(C)COCC1n1c(Cc2c(F)cc(-c3cccc(OCc4ccc(C#N)cc4F)n3)c(F)c2F)nc2c(F)cc(C(=O)O)cc21 (centres unmarked) [Example 122, 2-(4-(6-((4-cyano-2-fluorobenzyl)oxy)pyridin-2-yl)-2,3,6-trifluorobenzyl)-1-(4,4-dimethyltetrahydrofuran-3-yl)-4-fluoro-1H-benzo[d]imidazole-6-carboxylic Acid] was run?
The EC50 was 0.031 nM.

Which EC50 does the source give for CC1(C)COC[C@H]1n1c(Cc2ccc(-c3ccc(F)c(OCc4ccc(-n5ccnn5)cc4F)n3)cc2F)nc2c(F)cc(C(=O)O)cc21 [Example 235, (S)-1-(4,4-dimethyltetrahydrofuran-3-yl)-4-fluoro-2-(2-fluoro-4-(5-fluoro-6-((2-fluoro-4-(1H-1,2,3-triazol-1-yl)benzyl)oxy)pyridin-2-yl)benzyl)-1H-benzo[d]imidazole-6-carboxylic acid] here?
Its EC50 is 0.191 nM.

Which EC50 does the source give for CC1(C)COC[C@H]1n1c(Cc2cc(F)c(-c3cccc(OCc4ccc(Cl)c(F)c4)n3)cc2F)nc2ccc(C(=O)O)cc21 [Example 394, (S)-2-(4-(6-((4-chloro-3-fluorobenzyl)oxy)pyridin-2-yl)-2,5-difluorobenzyl)-1-(4,4-dimethyltetrahydrofuran-3-yl)-1H-benzo[d]imidazole-6-carboxylic acid] here?
The EC50 was 0.243 nM.

Which EC50 does the source give for CC1(C)COC[C@H]1n1c(Cc2c(F)cc(-c3ccc(F)c(OCc4ccc(C#N)cc4)n3)c(F)c2F)nc2ccc(C(=O)O)cc21 [Example 283, (S)-2-(4-(6-((4-cyanobenzyl)oxy)-5-fluoropyridin-2-yl)-2,3,6-trifluorobenzyl)-1-(4,4-dimethyltetrahydrofuran-3-yl)-1H-benzo[d]imidazole-6-carboxylic acid] here?
The EC50 was 0.477 nM.

How did the EC50 turn out when CC1(C)COC[C@H]1n1c(Cn2cc(F)c(-c3ccc(F)c(OCc4ccc(Cl)cc4)n3)cc2=O)nc2ccc(C(=O)O)cc21 [Example 300, (S)-2-((6-((4-chlorobenzyl)oxy)-5,5′-difluoro-2′-oxo-[2,4′-bipyridin]-1′(2′H)-yl)methyl)-1-(4,4-dimethyltetrahydrofuran-3-yl)-1H-benzo[d]imidazole-6-carboxylic acid] was run?
The EC50 was 0.268 nM.

Which EC50 does the source give for CC1(C)COC[C@H]1n1c(Cc2cc(F)c(-c3cccc(OCc4ccccc4C#N)n3)cc2F)nc2ccc(C(=O)O)cc21 [Example 446, (S)-2-(4-(6-((2-cyanobenzyl)oxy)pyridin-2-yl)-2,5-difluorobenzyl)-1-(4,4-dimethyltetrahydrofuran-3-yl)-1H-benzo[d]imidazole-6-carboxylic acid] here?
Its EC50 is 0.2 nM.

CO[C@@H]1COCC1n1c(Cc2cc(F)c(-c3cccc(OCc4ccc(C#N)cc4F)n3)cc2F)nc2c(F)cc(C(=O)O)cc21 (single isomer, unassigned) [Example 239] was tested. Which EC50 did it give?
The EC50 was 0.04 nM.

How did the EC50 turn out when CC1(C)COC[C@H]1n1c(Cc2cc(F)c(-c3cccc(OCc4ccc5c(c4)CN(S(C)(=O)=O)C5)n3)cc2F)nc2c(F)cc(C(=O)O)cc21 [Example 240, (S)-2-(2,5-difluoro-4-(6-((2-(methylsulfonyl)isoindolin-5-yl)methoxy)pyridin-2-yl)benzyl)-1-(4,4-dimethyltetrahydrofuran-3-yl)-4-fluoro-1H-benzo[d]imidazole-6-carboxylic acid] was run?
Its EC50 is 0.127 nM.

With COCCOCCOCCn1cc(-c2ccc(COc3cccc(-c4cc(F)c(Cc5nc6ccc(C(=O)O)cc6n5CCOC)cc4F)n3)c(F)c2)cn1 [Example 98] as the compound, how does the EC50 read?
The EC50 was 1.43 nM.

For Cc1cc(Cc2nc3c(F)cc(C(=O)O)cc3n2[C@@H]2COCC2(C)C)c(Cl)cc1-c1ccnc(OCc2ccc(C#N)cc2F)n1 [Example 319, (S)-2-(2-chloro-4-(2-((4-cyano-2-fluorobenzyl)oxy)pyrimidin-4-yl)-5-methylbenzyl)-1-(4,4-dimethyltetrahydrofuran-3-yl)-4-fluoro-1H-benzo[d]imidazole-6-carboxylic acid], which EC50 is on record?
The EC50 was 0.346 nM.

How did the EC50 turn out when CC1(C)COC[C@H]1n1c(Cc2ccc(-c3cccc(OCc4ccc(C#N)cc4)n3)cc2F)nc2ccc(C(=O)O)cc21 [Example 373, (S)-2-(4-(6-((4-cyanobenzyl)oxy)pyridin-2-yl)-2-fluorobenzyl)-1-(4,4-dimethyltetrahydrofuran-3-yl)-1H-benzo[d]imidazole-6-carboxylic acid] was run?
Its EC50 is 0.294 nM.

For CC1(C)COC[C@H]1n1c(Cc2cc(F)c(-c3cccc(OCc4ccc(Cl)cc4F)n3)cc2F)nc2cc(F)c(C(=O)O)cc21 [Example 417, (S)-2-(4-(6-((4-chloro-2-fluorobenzyl)oxy)pyridin-2-yl)-2,5-difluorobenzyl)-1-(4,4-dimethyltetrahydrofuran-3-yl)-5-fluoro-1H-benzo[d]imidazole-6-carboxylic acid], which EC50 is on record?
The EC50 was 0.19 nM.

For N#Cc1ccc(COc2cccc(-c3cc(F)c(Cc4nc5ccc(C(=O)O)cc5n4CC4CC5(CC5)CO4)cc3F)n2)c(F)c1 (centres unmarked) [Example 274, 1-(5-oxaspiro[2.4]heptan-6-ylmethyl)-2-(4-(6-((4-cyano-2-fluorobenzyl)oxy)pyridin-2-yl)-2,5-difluorobenzyl)-1H-benzo[d]imidazole-6-carboxylic acid], which EC50 is on record?
The EC50 was 0.643 nM.

How did the EC50 turn out when COCCn1c(Cc2cc(F)c(-c3cccc(OCc4cc(F)ccc4F)n3)cc2F)nc2ccc(C(=O)O)cc21 [Example 26, 2-(4-(6-((2,5-difluorobenzyl)oxy)pyridin-2-yl)-2,5-difluorobenzyl)-1-(2-methoxyethyl)-1H-benzo[d]imidazole-6-carboxylic Acid] was run?
The EC50 was 18.7 nM.

O=C(O)c1ccc2nc(Cc3cc(F)c(-c4cccc(OCc5cnc(-n6ccnn6)cc5Cl)n4)cc3F)n(CCOC(F)F)c2c1 [Example 560, 2-(4-(6-((4-chloro-6-(1H-1,2,3-triazol-1-yl)pyridin-3-yl)methoxy)pyridin-2-yl)-2,5-difluorobenzyl)-1-(2-(difluoromethoxy)ethyl)-1H-benzo[d]imidazole-6-carboxylic acid] was tested. Which EC50 did it give?
Its EC50 is 0.192 nM.

With COCCn1c(C(CO)c2cc(F)c(-c3cccc(OCc4ccc(C#N)cc4F)n3)cc2F)nc2ccc(C(=O)O)cc21 (centres unmarked) [Example 54] as the compound, how does the EC50 read?
Its EC50 is 31.6 nM.

With CC1(C)COC[C@H]1n1c(Cc2cc(F)c(-c3cccc(OCc4ccc(C(F)F)cc4)n3)cc2F)nc2ccc(C(=O)O)cc21 [Example 357, (S)-2-(4-(6-((4-(difluoromethyl)benzyl)oxy)pyridin-2-yl)-2,5-difluorobenzyl)-1-(4,4-dimethyltetrahydrofuran-3-yl)-1H-benzo[d]imidazole-6-carboxylic acid] as the compound, how does the EC50 read?
Its EC50 is 0.171 nM.

COc1cc(Cl)ncc1COc1nc(-c2cc(F)c(Cc3nc4ccc(C(=O)O)cc4n3[C@@H]3COCC3(C)C)c(F)c2F)ccc1F [Example 341, (S)-2-(4-(6-((6-chloro-4-methoxypyridin-3-yl)methoxy)-5-fluoropyridin-2-yl)-2,3,6-trifluorobenzyl)-1-(4,4-dimethyltetrahydrofuran-3-yl)-1H-benzo[d]imidazole-6-carboxylic acid] was tested. Which EC50 did it give?
Its EC50 is 0.024 nM.

How did the EC50 turn out when CC1(C)COC[C@H]1n1c(Cc2cc(F)c(-c3cccc(OCc4ccc(C(F)(F)F)cc4F)n3)cc2F)nc2c(F)cc(C(=O)O)cc21 [Example 169, (S)-2-(2,5-difluoro-4-(6-((2-fluoro-4-(trifluoromethyl)benzyl)oxy)pyridin-2-yl)benzyl)-1-(4,4-dimethyltetrahydrofuran-3-yl)-4-fluoro-1H-benzo[d]imidazole-6-carboxylic Acid] was run?
Its EC50 is 0.171 nM.

With CC1(C)COC[C@@H]1n1c(Cc2cc(F)c(-c3cccc(OCc4ccc(C(F)F)cc4F)n3)cc2F)nc2ccc(C(=O)O)cc21 (single isomer, unassigned) [Example 383B] as the compound, how does the EC50 read?
The EC50 was 0.971 nM.

How did the EC50 turn out when N#Cc1ccc(COc2cccc(-c3ccc(Cc4nc5ccc(C(=O)O)cc5n4[C@@H]4CCOC4)c(F)c3)n2)c(F)c1 [Example 209, (R)-2-(4-(6-((4-cyano-2-fluorobenzyl)oxy)pyridin-2-yl)-2-fluorobenzyl)-1-(tetrahydrofuran-3-yl)-1H-benzo[d]imidazole-6-carboxylic acid] was run?
Its EC50 is 12.3 nM.
